According to ChEMBL document CHEMBL6182949 (J Med Chem, 2025):
Values after ≈ are worked out from the molar mass of the structure shown. Active and inactive are the calls of the source. The rule behind the calls is not given here.

How the values were obtained:
[1] = Kinetic solubility of compound in PBS buffer at pH 7.4 incubated for 2 hr by LC-MS analysis; format: physicochemical; conditions: read-out: Kinetic_solubility
[2] = Cmax in Sprague-Dawley rat at 2 mg/kg, iv measured up to 24 hrs by LC-MS/MS analysis; format: ADME, organism-based; conditions: in vivo
[3] = Half life in Sprague-Dawley rat at 2 mg/kg, iv measured up to 24 hrs by LC-MS/MS analysis; format: ADME, organism-based; conditions: in vivo
[4] = Volume of distribution at steady state in Sprague-Dawley rat at 2 mg/kg, iv measured up to 24 hrs by LC-MS/MS analysis; format: ADME, organism-based; conditions: in vivo, read-out: Vdss
[5] = Tmax in Sprague-Dawley rat at 10 mg/kg, po measured up to 24 hrs by LC-MS/MS analysis; format: ADME, organism-based; conditions: in vivo
[6] = Half life in Sprague-Dawley rat at 10 mg/kg, po measured up to 24 hrs by LC-MS/MS analysis; format: ADME, organism-based; conditions: in vivo
[7] = Tmax in Beagle dog at 10 mg/kg, po measured up to 24 hrs by LC-MS/MS analysis; format: ADME, organism-based, Canis lupus familiaris; conditions: in vivo
[8] = Cmax in cynomolgus monkey at 1 mg/kg, iv measured up to 24 hrs by LC-MS/MS analysis; format: ADME, organism-based, Macaca fascicularis; conditions: in vivo
[9] = Clearance in cynomolgus monkey at 1 mg/kg, iv measured up to 24 hrs by LC-MS/MS analysis; format: ADME, organism-based, Macaca fascicularis; conditions: in vivo
[10] = Volume of distribution at steady state in cynomolgus monkey at 1 mg/kg, iv measured up to 24 hrs by LC-MS/MS analysis; format: ADME, organism-based, Macaca fascicularis; conditions: in vivo, read-out: Vdss
[11] = Tmax in cynomolgus monkey at 20 mg/kg, po measured up to 24 hrs by LC-MS/MS analysis; format: ADME, organism-based, Macaca fascicularis; conditions: in vivo
[12] = Cmax in cynomolgus monkey at 20 mg/kg, po measured up to 24 hrs by LC-MS/MS analysis; format: ADME, organism-based, Macaca fascicularis; conditions: in vivo
CYP2B6 = molecular target: T1, CYP2B6 (Homo sapiens, UniProt P20813); assay: Inhibition of CYP2B6 in human liver microsome using bupropion as substrate at 10 uM preincubated for 5 mins followed by NADPH addition and measured after 10 mins by LC-MS/MS analysis relative to control; format: ADME; conditions: human liver microsomes, probe bupropion, time 15 min
T1 sequence (P20813 whole entry): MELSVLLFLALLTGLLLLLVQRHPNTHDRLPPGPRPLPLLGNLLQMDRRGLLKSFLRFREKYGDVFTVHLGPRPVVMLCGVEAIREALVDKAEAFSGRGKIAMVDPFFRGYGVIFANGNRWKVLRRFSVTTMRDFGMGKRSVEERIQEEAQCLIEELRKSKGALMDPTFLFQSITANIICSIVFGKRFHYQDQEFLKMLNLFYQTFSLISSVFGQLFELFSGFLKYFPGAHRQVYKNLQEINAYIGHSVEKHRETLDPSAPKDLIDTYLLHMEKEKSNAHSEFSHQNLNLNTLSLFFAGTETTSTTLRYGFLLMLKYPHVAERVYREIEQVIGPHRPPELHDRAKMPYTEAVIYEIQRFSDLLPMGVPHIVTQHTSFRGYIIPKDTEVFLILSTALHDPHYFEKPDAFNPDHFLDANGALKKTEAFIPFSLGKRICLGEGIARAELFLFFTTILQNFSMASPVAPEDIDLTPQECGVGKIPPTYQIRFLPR

CYP3A4 [13] = molecular target: T2, CYP3A4 (Homo sapiens, UniProt P08684); assay: Inhibition of CYP3A4 in human liver microsome using midazolam as substrate at 10 uM preincubated for 5 mins followed by NADPH addition and measured after 10 mins by LC-MS/MS analysis relative to control; format: ADME; conditions: human liver microsomes, probe midazolam, time 15 min
CYP3A4 [14] = molecular target: T2, CYP3A4; assay: Inhibition of CYP3A4 in human liver microsome using testosterone as substrate at 10 uM preincubated for 5 mins followed by NADPH addition and measured after 10 mins by LC-MS/MS analysis relative to control; format: ADME; conditions: human liver microsomes, probe testosterone, time 15 min
[15] = molecular target: Protein cereblon/Interleukin-1 receptor-associated kinase 4 (Homo sapiens, UniProt Q9NWZ3+Q96SW2); assay: PROTAC activity at CRBN/IRAK4 in human PBMC cells assessed as induction of IRAK4 degradation incubated for 24 hrs by HiBiT lytic reagent based analysis relative to control; format: cell-based
[16] = molecular target: T3, Protein cereblon/Interleukin-1 receptor-associated kinase 4 (Mus musculus, UniProt Q8C7D2+Q8R4K2); assay: PROTAC activity at CRBN/IRAK4 in mouse PBMC cells assessed as induction of IRAK4 degradation incubated for 24 hrs by HiBiT lytic reagent based analysis; format: cell-based
T3 sequence (Q8C7D2 whole entry): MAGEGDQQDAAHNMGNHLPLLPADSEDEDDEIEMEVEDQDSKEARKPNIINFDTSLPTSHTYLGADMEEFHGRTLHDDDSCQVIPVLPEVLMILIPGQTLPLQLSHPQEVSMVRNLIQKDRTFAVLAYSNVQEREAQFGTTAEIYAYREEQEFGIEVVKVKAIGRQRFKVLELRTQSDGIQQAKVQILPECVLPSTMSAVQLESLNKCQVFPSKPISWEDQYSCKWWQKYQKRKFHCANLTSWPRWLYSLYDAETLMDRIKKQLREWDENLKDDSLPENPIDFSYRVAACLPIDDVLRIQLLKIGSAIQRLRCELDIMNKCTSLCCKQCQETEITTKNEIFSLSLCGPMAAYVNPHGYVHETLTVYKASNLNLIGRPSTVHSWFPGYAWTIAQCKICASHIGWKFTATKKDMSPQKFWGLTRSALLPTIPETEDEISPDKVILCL
T3 sequence (Q8R4K2 whole entry): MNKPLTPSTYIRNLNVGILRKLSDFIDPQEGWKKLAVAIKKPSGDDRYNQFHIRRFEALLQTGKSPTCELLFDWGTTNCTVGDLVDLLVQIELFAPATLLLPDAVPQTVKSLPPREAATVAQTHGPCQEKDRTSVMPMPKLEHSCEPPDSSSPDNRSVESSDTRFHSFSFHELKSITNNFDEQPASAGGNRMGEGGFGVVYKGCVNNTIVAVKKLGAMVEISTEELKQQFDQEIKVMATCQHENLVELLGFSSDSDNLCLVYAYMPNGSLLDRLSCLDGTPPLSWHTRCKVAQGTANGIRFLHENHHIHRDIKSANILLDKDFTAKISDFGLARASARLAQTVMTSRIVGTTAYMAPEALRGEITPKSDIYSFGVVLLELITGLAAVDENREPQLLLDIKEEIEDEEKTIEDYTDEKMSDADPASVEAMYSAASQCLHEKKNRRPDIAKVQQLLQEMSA

Mus musculus [17] = assay: Anti-psoriasis effect in IMQ-induced C57BL/6 mouse assessed as reduction in ear thickness at 10 mg/kg administered topically twice daily for 6 days and measured after 24 hrs; format: functional, organism-based; conditions: time 7.0 day
Mus musculus [18] = assay: Anti-psoriasis effect in IMQ-induced C57BL/6 mouse assessed as reduction in ear thickness at 30 mg/kg administered topically twice daily for 6 days and measured after 24 hrs; format: functional, organism-based; conditions: time 7.0 day
Mus musculus [19] = assay: Anti-psoriasis effect in IMQ-induced C57BL/6 mouse assessed as reduction in spleen weight at 30 mg/kg administered topically twice daily for 6 days and measured after 24 hrs; format: functional, organism-based; conditions: time 7.0 day
Mus musculus [20] = assay: Anti-arthritic activity against collagen-induced arthritis DBA/1 mouse model assessed as reduction in pathological score at 30 mg/kg, po administered for 14 days; format: functional, organism-based; conditions: time 14.0 day

T2 sequence (P08684 whole entry): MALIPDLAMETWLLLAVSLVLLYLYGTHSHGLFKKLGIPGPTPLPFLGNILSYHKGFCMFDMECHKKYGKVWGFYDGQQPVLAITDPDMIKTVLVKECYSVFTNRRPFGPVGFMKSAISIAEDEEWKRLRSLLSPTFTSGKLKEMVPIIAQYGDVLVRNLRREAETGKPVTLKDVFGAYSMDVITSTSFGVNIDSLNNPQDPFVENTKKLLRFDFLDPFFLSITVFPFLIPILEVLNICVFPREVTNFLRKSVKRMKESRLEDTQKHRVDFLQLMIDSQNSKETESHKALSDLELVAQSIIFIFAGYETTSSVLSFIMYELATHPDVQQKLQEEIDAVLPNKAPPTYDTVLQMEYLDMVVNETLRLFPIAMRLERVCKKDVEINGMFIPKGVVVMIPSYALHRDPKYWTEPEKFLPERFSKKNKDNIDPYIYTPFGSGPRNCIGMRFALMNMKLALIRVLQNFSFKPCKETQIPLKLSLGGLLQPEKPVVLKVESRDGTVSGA
Chain of Protein cereblon/Interleukin-1 receptor-associated kinase 4 (Homo sapiens, UniProt Q9NWZ3+Q96SW2) (Q96SW2 whole entry, looked up): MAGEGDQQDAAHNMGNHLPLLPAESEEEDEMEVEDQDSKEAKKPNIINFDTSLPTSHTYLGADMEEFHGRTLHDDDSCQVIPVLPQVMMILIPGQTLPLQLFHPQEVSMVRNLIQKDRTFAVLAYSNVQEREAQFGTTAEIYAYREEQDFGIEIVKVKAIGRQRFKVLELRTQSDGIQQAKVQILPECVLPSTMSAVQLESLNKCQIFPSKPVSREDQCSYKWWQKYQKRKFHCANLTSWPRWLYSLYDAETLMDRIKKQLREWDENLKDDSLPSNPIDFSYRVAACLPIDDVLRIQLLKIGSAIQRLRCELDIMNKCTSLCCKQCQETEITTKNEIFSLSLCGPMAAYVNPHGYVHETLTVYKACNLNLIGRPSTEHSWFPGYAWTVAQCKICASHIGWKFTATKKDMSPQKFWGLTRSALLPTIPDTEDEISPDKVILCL
Chain of Protein cereblon/Interleukin-1 receptor-associated kinase 4 (Homo sapiens, UniProt Q9NWZ3+Q96SW2) (Q9NWZ3 whole entry, looked up): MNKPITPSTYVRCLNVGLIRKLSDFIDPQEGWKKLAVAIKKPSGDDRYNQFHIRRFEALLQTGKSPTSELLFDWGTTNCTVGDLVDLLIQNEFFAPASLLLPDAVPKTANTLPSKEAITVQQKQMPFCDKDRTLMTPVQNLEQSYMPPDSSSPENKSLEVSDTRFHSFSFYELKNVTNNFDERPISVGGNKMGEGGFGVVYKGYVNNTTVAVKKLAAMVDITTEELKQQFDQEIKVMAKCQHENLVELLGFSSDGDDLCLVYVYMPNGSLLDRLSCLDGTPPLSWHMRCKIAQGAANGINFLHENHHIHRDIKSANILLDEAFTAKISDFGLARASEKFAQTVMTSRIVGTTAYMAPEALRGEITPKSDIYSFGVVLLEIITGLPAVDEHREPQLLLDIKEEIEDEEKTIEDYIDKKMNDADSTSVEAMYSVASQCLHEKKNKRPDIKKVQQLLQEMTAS

## Cn1c(=O)n(C2CCC(=O)NC2=O)c2cccc(C#CCO[C@H]3CC[C@H](CN4CCC5(CC4)Cc4cc(NC(=O)c6coc7cccnc67)c(N6CCC(CO)CC6)cc4O5)CC3)c21 (stereo partly specified)
[1]
  solubility kinetic at 2 h: 0.97 µg/mL (≈ 1.11 µM)
[2]
  Cmax: 0.0142 µg/mL
[3]
  half-life: 4 h
[4]
  Vd: 2.66 L/kg
[5]
  Tmax: 6 h
[6]
  half-life: 3.43 h
[7]
  Tmax: 4 h
[8]
  Cmax: 0.672 µg/mL
[9]
  clearance: 0.552 L/h/kg
[10]
  Vd: 3.85 L/kg
[11]
  Tmax: 6 h
[12]
  Cmax: 0.229 µg/mL
CYP2B6
  inhibition at 10 min, 10 µM: 0.13%
CYP3A4 [13]
  inhibition at 10 min, 10 µM: 19.1%
CYP3A4 [14]
  inhibition at 10 min, 10 µM: 10.2%
[15]
  Emax: 94%
[16]
  DC50: 3.57 nM
Mus musculus [17]
  Activity: Active
Mus musculus [18]
  Activity: Active
Mus musculus [19]
  Activity: Active
Mus musculus [20]
  Activity: Active
